The values below come from patent US4196216A, “Novel benzylidene amini-oxyalkyl carboxylic acids and carboxylic acid derivatives” (U.S. Philips Corporation, priority 1968, dated 1980).

Bounds are passed on as bounds.

Usually LD50 stands for the dose expected to kill half of the subjects tested. High values mean a less toxic substance, low ones a more toxic substance.

The subject of one series is Rhine virus. In words: activity against Rhine virus.
A short description of series [1]: acute toxicity (LD50 table, level of toxicity). Conditions: in vivo. The source says: This low level of toxicity appears from the following table: […]
A short description of series [2]: anti-inflammatory and analgetic activities, general statement. It counts as in vivo. The note with it: test not specified.
The conditions of series [3]: known compound, background, cited from earlier work.
Setting [4] is: po, route of administration: or(al).
The mark [5] stands for this setting: route of administration: par(enteral).

For `CC(=NOCC(N)=O)c1ccc(Cl)cc1` [C1 H H CH3 CH2 NH2, [(α-methyl-4-chlorobenzylidene amino)oxy]acetamide], the “activity against Rhine virus” value in the series with Rhine virus is reported as “interesting activity”. In series [1] (setting [4]), this molecule gave an LD50 at 24 h greater than 1000 mg/kg and a median lethal dose (LD50) at 48 h greater than 1000 mg/kg. Also, the activities result in series [2] is “particularly strong activities”.
In series [1] (setting [4]), `COC(=O)CON=C(C)c1ccc(Cl)cc1` [C1 H H CH3 CH2 OCH3, [(α-methyl-4-chlorobenzylidene amino)oxy] acetic acid methyl ester] registered an LD50 at 24 h greater than 1000 mg/kg and an LD50 at 48 h greater than 1000 mg/kg. Also, in series [2], the activities entry is on record as “particularly strong activities”.
Turning to `CC(=NOCC(=O)NN)c1ccc(Cl)cc1` [C1 H H CH3 CH2 NHNH2, [(α-methyl-4-chlorobenzylidene amino)oxy] acet hydrazide], in the series with Rhine virus, the “activity against Rhine virus” value is recorded as “interesting activity”. This molecule gave a median lethal dose (LD50) at 24 h in series [1] (setting [4]) of roughly 1000 mg/kg.
In the case of `CC(=NOCC(=O)O)c1ccc(Br)cc1` [Br H H CH3 CH2 OH], in series [1] (setting [5]), the LD50 at 24 h was greater than 100 mg/kg.
In the case of `CC(=NOCC(=O)O)c1ccc(Cl)c(Cl)c1` [C1 C1 H CH3 CH2 OH, [(α-methyl-3,4-dichlorobenzylene amino)oxy] acetic acid], the LD50 at 24 h in series [1] (setting [5]) was greater than 320 mg/kg.
On to `CC(=NOCCC(N)=O)c1ccc(Cl)cc1` [C1 H H CH3 (CH2)2 NH2, 3-[(α-methyl-4-chlorobenzylideneamino)oxy] propionamide], for which the LD50 at 24 h in series [1] (setting [4]) was greater than 1000 mg/kg.
The same measure, in the same setting: to `CNC(=O)CON=C(C)c1ccc(Cl)cc1` [C1 H H CH3 CH2 NHCH3, [(α-methyl-4-chlorobenzylidene amino)oxy]-N-methyl acetamide] belongs greater than 1000 mg/kg.
`CC(=NOCC(=O)O)c1cccc(Cl)c1` [H C1 H CH3 CH2 OH] had an LD50 at 24 h in series [1] (setting [5]) greater than 320 mg/kg.
Molecule `CC(=NOCC(=O)N(C)C)c1ccc(Cl)cc1` [C1 H H CH3 CH2 (CH3)2 N, [(α-methyl-4-chlorobenzylidene amino)oxy]-N,N-dimethyl acetamide] displayed an LD50 at 24 h in series [1] (setting [4]) greater than 1000 mg/kg.
Regarding `CC(=NOCC(=O)O)c1ccc(C)cc1` [CH3 H H CH3 CH2 OH], in series [1] (setting [5]), the LD50 at 24 h was greater than 320 mg/kg.
Consider `CC(=NOCC(=O)O)c1ccc(Cl)cc1Cl` [C1 H C1 CH3 CH2 OH, [(α-methyl-2,4-dichlorobenzylidene amino)oxy] acetic acid], for which the “activity against Rhine virus” value in the series on Rhine virus is “interesting activity”. The LD50 at 24 h in series [1] (setting [5]) was greater than 320 mg/kg.
Turning to `CC(=NOCC(=O)O)c1ccc(S(C)(=O)=O)cc1` [CH3 SO2 H H CH3 CH2 OH], in series [1] (setting [5]), the LD50 at 24 h is greater than 320 mg/kg.
For the molecule `CC(=NOCC(=O)OC(C)C)c1ccc(Cl)cc1` [C1 H H CH3 CH2 OCH(CH3)2], the LD50 at 24 h in series [1] (setting [4]) was greater than 1000 mg/kg.
On the same count and under the same terms, the value for `CC(=NOCC(=O)OCc1ccccc1)c1ccc(Cl)cc1` [C1 H H CH3 CH2 OCH2 C6 H5] was greater than 1000 mg/kg.
For the molecule `O=C(O)CON=Cc1ccc(Cl)cc1` [C1 H H H CH2 OH, [(4-chlorobenzylidene amino)oxy] acetic acid], in series [1] (setting [5]), the LD50 at 24 h is greater than 320 mg/kg.
In series [1] (setting [4]), `CC(=NOCC(=O)O)c1ccc(Cl)cc1` [C1 H H CH3 CH2 OH, [(α-methyl-4-chlorobenzylidene amino)oxy] acetic acid] yielded an LD50 at 24 h greater than 1000 mg/kg and an LD50 at 48 h greater than 1000 mg/kg. Moreover, the activities result in series [2] is reported as “particularly strong activities”.
`CC(=NOCCC(=O)O)c1ccc(Cl)cc1` [C1 H H CH3 (CH2)2 OH, 3-[(α-methyl-4-chlorobenzylideneamino)oxy] propionic acid] came in with an LD50 at 24 h in series [1] (setting [5]) greater than 100 mg/kg.
On to `CCCCNC(=O)CON=C(C)c1ccc(Cl)cc1` [N-n.butyl-[(α-methyl-4-chlorobenzylideneamino)oxy] acetamide], for which the “activity against Rhine virus” value with Rhine virus is on record as “interesting activity”.
On to `CC(=NOCCCC(=O)O)c1ccc(Cl)cc1` [C1 H H CH3 (CH2)3 OH, 4-[(α-methyl-4-chlorobenzylideneamino)oxy] butyric acid], for which the “activity against Rhine virus” value with Rhine virus is recorded as “interesting activity”. The same molecule yielded an LD50 at 24 h in series [1] (setting [5]) greater than 320 mg/kg.
Regarding `CCCCCCCCOC(=O)CON=C(C)c1ccc(Cl)cc1` [C1 H H CH3 CH2 OnC8 H17], the LD50 at 24 h in series [1] (setting [4]) is greater than 1000 mg/kg.
On to `COc1ccc2c(c1)c(CC(=O)O)cn2-c1ccc(Cl)cc1` [(N-p.chlorophenyl-5-methoxy indolyl-3) acetic acid], for which, in series [3], the potency entry is “highly potent” and the toxicity level result is reported as “high toxicity level”. For the same molecule, the therapeutic level entry in series [3] (due to high toxicity) is “quite low”.
As to `CC(=NOCC(N)=O)c1ccc(Cl)c(Cl)c1` [C1 C1 H CH3 CH2 NH2, [(α-methyl-3,4-dichlorobenzylidene amino)oxy] acetamide], the “activity against Rhine virus” value in the series with Rhine virus was “interesting activity”. Moreover, the LD50 at 24 h in series [1] (setting [4]) was roughly 1000 mg/kg.
